According to US4082881A, “Topical and other type pharmaceutical formulations containing isosorbide carrier” (E. R. Squibb & Sons, Inc., priority 1976, dated 1978):

Columns and labels:
[1] = solubility of the steroid in water and in hydrocarbon and other vehicles; format: physicochemical
[2] = solubility of econazole nitrate in water and in the isosorbide preparations; format: physicochemical

Compound	solubility in hydrocarbon vehicles ([1]; mineral oil, petrolatum or polyethylene gelled mineral oil, compared with water)	solubility ([1]; water) [µg/mL]	solubility in water-soluble emulsifiers and oil liquids or emollients ([1]; water-soluble emulsifiers and oil liquids or emollients suggested for ointments, gels, creams and lotions)	solubilized and available econazole nitrate relative to a conventional lotion or cream ([2]; in these preparations (Econazole Cream 0.5%, Econazole Lotion 0.5%) vs conventional lotion or cream, about) [times]	solubility ([2]; water) [µg/mL]
CC1(C)O[C@@H]2C[C@H]3[C@@H]4CCC5=CC(=O)CC[C@]5(C)[C@@]4(F)[C@@H](O)C[C@]3(C)[C@]2(C(=O)CCl)O1 [21-chloro-9α-fluoro-Δ^4-pregnene-11β,16α,17α-triol-3,20-dione 16,17-acetonide]	even less soluble	< 5	undesirably low solubility		
Clc1ccc(COC(Cn2ccnc2)c2ccc(Cl)cc2Cl)cc1 (centres unmarked) [econazole nitrate]				≥ 5	~1000
